Assay [1] deals with OVCAR-5. Kind of assay: Antiproliferative activity against human OVCAR5 cells after 48 hrs by sulforhodamine B assay. Type of assay: functional. The settings on record: OVCAR-5, 48 h.
Assay [2] relates to NCI-H460. Kind of assay: Antiproliferative activity against human NCI-H460 cells after 48 hrs by sulforhodamine B assay. Format: functional. The note with it: NCI-H460, 48 h.
Assay [3] concerns MDA-MB-435. Put plainly: Antiproliferative activity against human MDA-MB-435 cells after 48 hrs by sulforhodamine B assay. Format: functional. The settings on record: MDA-MB-435, 48 h.
Assay [4] relates to MCF7. Put plainly: Antiproliferative activity against human MCF7 cells after 48 hrs by sulforhodamine B assay. The note with it: MCF7, 48 h. Format: functional.
Assay [5] has as its system HCT-116. Put plainly: Antiproliferative activity against human HCT116 cells after 48 hrs by sulforhodamine B assay. Type of assay: functional. The note with it: HCT-116, 48 h.
The target in assay [6] is Histone deacetylase. Put plainly: Inhibition of HDAC in human HeLa cell nuclear extracts using Fluor de Lys as substrate by fluorescence assay. Format: protein assay.
For assay [7], the target named is Histone deacetylase (Homo sapiens) (UniProt Q13547+O15379+Q9UBN7+Q92769+Q9UQL6+Q8WUI4+Q9BY41+Q96DB2+P56524+Q9UKV0+Q969S8). The settings on record: HeLa, at 1 µM.
Description: Inhibition of HDAC in human HeLa cell nuclear extracts using Fluor de Lys as substrate at 1 uM by fluorescence assay

The structures appear in SMILES notation.

With `CCCCCNC(=O)Nc1cc(/C=C/C(=O)NO)ccc1SCCN(CC)CC`, the GI50 in assay [1] is 1800 nM; in assay [2], 940 nM; in assay [3] it was 990 nM; in assay [4] it was 400 nM; in assay [5], 560 nM. This compound also displayed an IC50 in assay [6] of 206 nM. Moreover, the inhibition in assay [7] was 84.2%.
In assay [7], `CCCNC(=S)Nc1cc(/C=C/C(=O)NO)ccc1SCCN(CC)CC` gave an inhibition of 76.2%.
For the compound `CCCNC(=S)Nc1cc(/C=C/C(=O)NO)ccc1OCCN(CC)CC`, the IC50 in assay [6] turned out to be 210 nM. Further, the inhibition in assay [7] was 82.9%.
Take `CCCCCNC(=O)Nc1cc(/C=C/C(=O)NO)ccc1OCCN(CC)CC`: the concentration for 50% growth inhibition (GI50) is 1340 nM in assay [1]; 870 nM in assay [2]; 830 nM in assay [3]; 290 nM in assay [4]; 470 nM in assay [5]. In assay [6], the IC50 is on record as 186 nM. Also, in assay [7], the inhibition amounted to 88.9%.
As for `CCCCNC(=O)Nc1cc(/C=C/C(=O)NO)ccc1SCCN(CC)CC`, the GI50 was found to be 1750 nM in assay [1]; 1550 nM in assay [2]; 1500 nM in assay [3]; 430 nM in assay [4]; 590 nM in assay [5]. The compound also displayed an IC50 in assay [6] of 172 nM. Also, the inhibition in assay [7] turned out to be 84.5%.
Consider `CCCCCCNC(=O)Nc1cc(/C=C/C(=O)NO)ccc1SCCN(CC)CC`, for which the inhibition in assay [7] is 79.6%.
Compound `CCCCCCCNC(=O)Nc1cc(/C=C/C(=O)NO)ccc1OCCN(CC)CC` yielded an IC50 in assay [6] of 410 nM. Besides, in assay [7], the inhibition was determined as 83.6%.
On to `CCCCCCCNC(=S)Nc1cc(/C=C/C(=O)NO)ccc1SCCN(CC)CC`, for which the inhibition in assay [7] amounted to 62.4%.
Turning to `CCCCc1nc2cc(/C=C/C(=O)NO)ccc2n1CCN(CC)CC` [PRACINOSTAT], the GI50 was found to be 610 nM in assay [1]; 220 nM in assay [2]; 480 nM in assay [3]; 170 nM in assay [4]; 240 nM in assay [5].
For the compound `CCCCNC(=O)Nc1cc(/C=C/C(=O)NO)ccc1OCCN(CC)CC`, the inhibition in assay [7] amounted to 80.7%.
Turning to `O=C(CCCCCCC(=O)Nc1ccccc1)NO` [VORINOSTAT], the GI50 turned out to be 880 nM in assay [3], 450 nM in assay [4] and 940 nM in assay [5].
As for `CCCCNC(=S)Nc1cc(/C=C/C(=O)NO)ccc1OCCN(CC)CC`, the GI50 in assay [1] stood at 1120 nM; in assay [2], 480 nM; in assay [3], 510 nM; in assay [4], 220 nM; in assay [5] it was 350 nM. For the same compound, the IC50 in assay [6] worked out at 130 nM. Besides, in assay [7], the inhibition is 88%.
`CCCCCNC(=S)Nc1cc(/C=C/C(=O)NO)ccc1SCCN(CC)CC` had an inhibition in assay [7] of 73.8%.
The compound `CCCNC(=O)Nc1cc(/C=C/C(=O)NO)ccc1OCCN(CC)CC` had an IC50 in assay [6] of 234 nM. Also, the inhibition in assay [7] was determined as 80%.
Take `CCCCCNC(=S)Nc1cc(/C=C/C(=O)NO)ccc1OCCN(CC)CC`: the GI50 in assay [1] turned out to be 1560 nM; in assay [2], 1080 nM; in assay [3], 1180 nM; in assay [4], 380 nM; in assay [5] it was 720 nM. Moreover, the half-maximal inhibitory concentration (IC50) in assay [6] was 216 nM. In assay [7], this compound gave an inhibition of 90.5%.
For `CCCCNC(=S)Nc1cc(/C=C/C(=O)NO)ccc1SCCN(CC)CC`, the inhibition in assay [7] turned out to be 73.9%.
On to `CCCCCCNC(=S)Nc1cc(/C=C/C(=O)NO)ccc1OCCN(CC)CC`, for which the IC50 in assay [6] is 187 nM. Further, the inhibition in assay [7] worked out at 87.4%.
Take `CCCCCCCNC(=S)Nc1cc(/C=C/C(=O)NO)ccc1OCCN(CC)CC`: the inhibition in assay [7] came out at 69.8%.
Compound `CCCNC(=O)Nc1cc(/C=C/C(=O)NO)ccc1SCCN(CC)CC` had a half-inhibitory concentration (IC50) in assay [6] of 198 nM. The compound also gave an inhibition in assay [7] of 82.7%.
Regarding `CCCCCCCNC(=O)Nc1cc(/C=C/C(=O)NO)ccc1SCCN(CC)CC`, the inhibition in assay [7] worked out at 48.7%.
Consider `CCCCCCNC(=S)Nc1cc(/C=C/C(=O)NO)ccc1SCCN(CC)CC`, for which, in assay [7], the inhibition amounted to 72.2%.
In turn, `CCCCCCNC(=O)Nc1cc(/C=C/C(=O)NO)ccc1OCCN(CC)CC` returned an IC50 in assay [6] of 304 nM. In assay [7], this compound registered an inhibition of 87.5%.
